Test system: Human keratinocytes
Test: de novo IP3 synthesis in KHN cells (RIA)
Type: cell-based
Procedure: The IP3 produced by the cell is extracted with perchloric acid and assay is conducted by a RIA method based on competition for a specific IP3 binding protein between radioactive IP3 and cell extract IP3. The intracellular IP3 is assayed after stimulation with the extract of Euglena, vs.control. The positive control consists in Platelet-Activating Factor (PAF).
Human keratinocytes were cultured and incubated to 90% confluence. The cells were incubated in the presence of extract of euglena at various concentrations or the control for 1 minute.

Platelet-Activating Factor [PAF] was tested, and the IP3 (positive control, mean of n = 3) was 17.48 pmol/mL, the “Variation of IP3” value (positive control, relative to control) was 515 and the “IP3 production, result in words” value (vs control) was “stimulated IP3 production”.

Source: US8741357B2, “Cosmetic or dermopharmaceutical composition comprising an euglena extract” (Sederma SAS, priority 2005, dated 2014)
